Measurements from article PMC10638401, “Mannich-type modifications of (−)-cannabidiol and (−)-cannabigerol leading to new, bioactive derivatives” (Scientific Reports, 2023).
≈ marks a conversion by molar mass, not a printed value. Where two headings read alike, the source gives them in different places.

Assays:
A2780 cells = experiment: Antiproliferative MTT assay, 72 h; type: cell-based, human; details: for antiproliferative activity (in words): A2780, 10 and 30 μM
Description: (§1) Human adherent cancer cell lines A2780, MDA-MB-231 and MCF-7 were obtained from ECACC (European Collection of Cell Cultures, Salisbury, UK; Cat. No.93112519, 92020424, 86012803, respectively). SiHa cell line was obtained from ATCC (American Tissue Culture Collection, Manassas, Virginia, USA; Cat. No. HTB-35). All cell lines used for antiproliferative assay were maintained in Eagle's Minimum Essential Medium (EMEM) completed with 10% fetal bovine serum (FBS), 1% non-essential amino acid solution, and 1% penicillin, streptomycin, and amphotericin B mixture under cell culture conditions described before. All the utilized media and supplements were purchased from Lonza Group Ltd. (Basel, Switzerland).
(§2) The antiproliferative actions of the prepared molecules were determined by the same assay against a panel of adherent human cancer cell lines containing cervical (SiHa), ovarian (A2780) and breast (MCF7, MDA-MB-231) cell lines. Cells were plated onto 96-well microplates (5000 cells/well) and after an overnight incubation treated with two concentrations (10 or 30 μM) of the test substances for 72 h under cell culture conditions. Subsequently, MTT (5 mg/ml in phosphate buffer) was added to the wells, followed by incubation for 4 h. The supernatant was removed, the formazan crystals were then dissolved in 100 µl DMSO. Finally, absorbance values were determined by a microplate reader (BMG Labtech, Ortenberg, Germany) at 545 nm. Two independent measurements were performed with five parallel wells. Results were expressed as percentage of cell proliferation inhibition compared to non-treated control samples regarded as 0%.

MCF7 cells = experiment: Antiproliferative MTT assay, 72 h; type: cell-based, human; details: for antiproliferative activity (in words): MCF7, 10 and 30 μM; for inhibition of the proliferation: MCF7, 30 μM
Description: as §1, §2

MDA-MB-231 cells = experiment: Antiproliferative MTT assay, 72 h; type: cell-based, human; details: for antiproliferative activity (in words): MDA-MB-231, 10 and 30 μM
Description: as §1, §2

SiHa cells = experiment: Antiproliferative MTT assay, 72 h; type: cell-based, human; details: for antiproliferative activity (in words): 10 and 30 μM
Description: as §1, §2

SARS-CoV-2 [1] = experiment: SARS-CoV-2 cytopathic effect (CPE) inhibition assay in Vero E6 cells (XTT); type: cell-based; details: for EC50: Severe acute respiratory syndrome coronavirus 2, Vero C1008, 72 h, Vero E6 cells, 3 days post-infection, XTT; for IC50: Severe acute respiratory syndrome coronavirus 2, Vero C1008, read-out: IC50 (anti-SARS-CoV-2 activity, Figure 8)
Experimental: (§3) CBD and CBG derivatives were further tested for their ability to inhibit SARS-CoV-2 replication in Vero E6 cells. Initially, the inhibition of virus-induced cytopathic effect was measured by addition of twofold serial dilutions of each derivative to the cells, followed by the infection with SARS-CoV-2 and determination of the cell viability 3 days post-infection by XTT assay. Concurrently, the cytotoxicity of each compound was assessed from identical dilutions in uninfected Vero E6 cells. To confirm anti-SARS-CoV-2 activity in the CPE inhibition assay, selected compounds were tested in immunofluorescence assay, where inhibition of SARS-CoV-2 replication was monitored as reduction in nucleoprotein expression using fluorescence microscope. […] Among the CBG derivatives, we can find quite cytotoxic and non-cytotoxic derivatives as well.
(§4) For CPE-based assay, two-fold fold serial dilutions of compounds from 100 µM were added in triplicate in a 384-well plate with 5000 Vero E6 cells in DMEM medium with 2% FBS, 100 U of penicillin/ml and 100 µg of streptomycin/ml (all Merck). After 1 h incubation SARS-CoV-2 (strain hCoV-19/Czech Republic/NRL_6632_2/2020) was added at multiplicity of infection […]. Following three days incubation at 37 °C in 5% CO2 the cell viability was determined by addition of XTT solution (Sigma-Aldrich) for 4 h and the absorbance was measured using EnVision plate reader (Perkin Elmer). Drug concentrations required to reduce viral cytopathic effect by 50% (EC50) were calculated using nonlinear regression from plots of percentage cell viability versus log10 drug concentration using GraphPad Prism (version 9.0.0, GraphPad Software, LLC). For immunofluorescence assay, two-fold fold serial dilutions of compounds from 100 µM were added in triplicate in 96-well plate with 15,000 Vero E6 cells plated day before in the same medium as above. After 1 h incubation, SARS-CoV-2 was added at multiplicity of infection 0.05 IU/cell. After three days of incubation, cells were fixed with 4% paraformaldehyde, permeabilized with 0.2% Triton X100 (both Merck), washed, incubated with anti-SARS-CoV-2antibody (mouse monoclonal antibody detecting SARS-CoV-2 nucleoprotein) for 2 h at room temperature. Followed by 1.5 h incubation with Cy3-labeled donkey anti-mouse IgG (Jackson ImmunoResearch Europe) and documented using fluorescence microscope with camera (Olympus). Images were processed in ImageJ software (NIH) and compound concentrations required to reduce fluorescence by 50% (EC50s) were calculated from plots of percentage of fluorescent cells versus log10 drug concentration using nonlinear regression analysis as above. Cytotoxicity was evaluated by incubating with the same two-fold serial dilutions of each compound as above with Vero E6 cells in 384-well plate.

SARS-CoV-2 [2] = experiment: SARS-CoV-2 immunofluorescence assay (nucleoprotein expression) in Vero E6 cells; type: cell-based; details: Severe acute respiratory syndrome coronavirus 2, Vero C1008, 72 h, three days
Experimental: as §3, §4

in vitro = details: African green monkey
Bacillus subtilis = experiment: MIC, broth micro dilution
Experimental: (§5) According to CLSI guideline the Minimal Inhibitory Concentrations (MICs) of the prepared compounds were determined with the broth micro dilution method. After an overnight growth on 5% bovine blood agar plates at 35 °C bacterial strains were suspended in physiological saline in order to reach the density of 0.5 McFarland for inoculation. Stock solutions containing different concentrations of the substances were prepared in DMSO and H2O (1:1). These were twofold serially diluted from 256 to 0.5 mg/l in Mueller–Hinton broth, and 100 ml of each dilution was inoculated with 10 ml of each bacterial suspension.

[3] = system: MSSA (Methicillin Sensitive Staphylococcus aureus); experiment: MIC, broth micro dilution
Experimental: as §5

[4] = system: MRSA (Methicillin Resistant Staphylococcus aureus); experiment: MIC, broth micro dilution
[5] = system: Staphylococcus epidermidis biofilm forming; experiment: MIC, broth micro dilution
Experimental: as §5

[6] = system: Staphylococcus epidermidis mecA; experiment: MIC, broth micro dilution
Experimental: as §5

[7] = system: Enterococcus faecalis 29 212; experiment: MIC, broth micro dilution
[8] = system: Enterococcus faecalis 15 376 VanA; experiment: MIC, broth micro dilution
Experimental: as §5

[9] = system: Enterococcus faecalis 51299 VanB; experiment: MIC, broth micro dilution
Experimental: as §5

[10] = Enterococcus faecalis, 15376VANA
[11] = Enterococcus faecalis, 51299VANB

Row | SMILES | antiproliferative activity (in words) (A2780 cells) | antiproliferative activity (in words) (MCF7 cells) | antiproliferative activity (in words) (MDA-MB-231 cells) | antiproliferative activity (in words) (SiHa cells) | EC50 (SARS-CoV-2 [1]) [µM] | IC50 (SARS-CoV-2 [1]) [µM] | EC50 (SARS-CoV-2 [2]) [µM] | CC50 (in vitro) [µM] | MIC (Bacillus subtilis) [µg/mL] | MIC ([3]; Staphylococcus aureus) [µg/mL] | MIC ([4]; Staphylococcus aureus) [µg/mL] | MIC ([5]; Staphylococcus epidermidis) [µg/mL] | MIC ([6]; Staphylococcus epidermidis) [µg/mL] | MIC ([7]; Enterococcus faecalis, 29212) [µg/mL] | MIC [8, 10] [µg/mL] | MIC [9, 11] [µg/mL] | further results
1 | C=C(C)[C@@H]1CCC(C)=C[C@H]1c1c(O)cc(CCCCC)c2c1OCN(CCCC(=O)O)C2 [Compound 12] | None of the other tested CBD analogs (9, 11, and 12) exhibited substantial antiproliferative activity | None of the other tested CBD analogs (9, 11, and 12) exhibited substantial antiproliferative activity | None of the other tested CBD analogs (9, 11, and 12) exhibited substantial antiproliferative activity | None of the other tested CBD analogs (9, 11, and 12) exhibited substantial antiproliferative activity | 11 ± 1.2 | 11 | 39 ± 1.4 | ~56 | > 256 | > 256 | > 256 | > 256 | > 256 | > 256 | > 256 | > 256 | –
2 | C=C(C)[C@@H]1CCC(C)=C[C@H]1c1c(O)cc(CCCCC)c2c1OCN(Cc1ccccc1)C2 [Compound 10] | – | – | – | – | 9 ± 0.51 | 9 | ~42 | > 100 | > 256 | > 256 | > 256 | > 256 | > 256 | > 256 | > 256 | > 256 | inhibition of the proliferation (MCF7 cells): considerable growth inhibition
3 | CCCCCc1c2c(c(C/C=C(\C)CCC=C(C)C)c3c1CN(Cc1ccccc1)CO3)OCN(Cc1ccccc1)C2 [Compound 17b] | ineffectiveness | ineffectiveness | ineffectiveness | ineffectiveness | – | – | – | – | – | – | – | – | – | – | – | – | –
4 | CCC(CC)COC(=O)[C@H](C)N[P@](=O)(OC[C@H]1O[C@@](C#N)(c2ccc3c(N)ncnn23)[C@H](O)[C@@H]1O)Oc1ccccc1 [Remdesivir, reference compound] | – | – | – | – | 2.8 ± 0.18 | – | 1.2 ± 0.03 | > 100 | – | – | – | – | – | – | – | – | –
5 | C=C(C)[C@@H]1CCC(C)=C[C@H]1c1c(O)c(CN(CC)CC)c(CCCCC)c(CN(CC)CC)c1O [Compound 13] | – | – | – | – | > 12 | > 12 | – | 12 ± 0.28 | > 256 | > 256 | > 256 | > 256 | > 256 | > 256 | > 256 | > 256 | inhibition of the proliferation (in words) (A2780 cells; A2780, 10 μM): no relevant action; inhibition of the proliferation (A2780 cells; A2780, 30 μM): similarly effective than CBD; inhibition of the proliferation (in words) (MCF7 cells; MCF7, 10 μM): no relevant action; inhibition of the proliferation (MCF7 cells): similarly effective than CBD; inhibition of the proliferation (in words) (MDA-MB-231 cells; MDA-MB-231, 10 μM): no relevant action; inhibition of the proliferation (MDA-MB-231 cells; MDA-MB-231, 30 μM): similarly effective than CBD; inhibition of the proliferation (in words) (SiHa cells; 10 μM): no relevant action; inhibition of the proliferation (SiHa cells; 30 μM): similarly effective than CBD
6 | C=C(C)[C@@H]1CCC(C)=C[C@H]1c1c(O)cc(CCCCC)c2c1OCN(CCCC)C2.Cl [Compound 8s] | no significant difference was detected | no significant difference was detected | no significant difference was detected | no significant difference was detected | – | – | – | – | 128 | – | – | – | – | – | – | – | MIC [3]: 128 µg/mL; MIC [4]: 128 µg/mL; MIC ([5]; Staphylococcus epidermidis biofilm forming): 128 µg/mL; MIC ([6]; Staphylococcus epidermidis mecA): 128 µg/mL; MIC ([7]; Enterococcus faecalis 29 212): 2 µg/mL; MIC ([8]; Enterococcus faecalis 15 376 VanA): 128 µg/mL; MIC ([9]; Enterococcus faecalis 51299 VanB): 2 µg/mL
7 | CCCCCc1cc(O)c(C/C=C(\C)CCC=C(C)C)c2c1CN(Cc1ccccc1)CO2 [Compound 17a] | – | – | – | – | > 100 | > 100 | – | > 100 | > 256 | > 256 | > 256 | > 256 | > 256 | 64 (≈ 143 µM) | > 256 | 64 (≈ 143 µM) | –
8 | CCCCCc1cc(O)c(C/C=C(\C)CCC=C(C)C)c2c1CN(CCCC(=O)O)CO2 [Compound 20] | – | – | – | – | > 100 | > 100 | – | > 100 | > 256 | > 256 | > 256 | > 256 | > 256 | 64 (≈ 144 µM) | 128 (≈ 289 µM) | 128 (≈ 289 µM) | –
9 | C=CCN1COc2c(c(CCCCC)c3c(c2C/C=C(\C)CCC=C(C)C)OCN(CC=C)C3)C1 [Compound 19b] | more active than CBG | more active than CBG | more active than CBG | more active than CBG | – | – | – | – | – | – | – | – | – | – | – | – | –
